Source: patent US8008487B2, “Substituted thieno[2,3-D]pyrimidines as fungicides” (priority 2004, dated 2011)
Read-outs that look alike come from different tables or passages of the source.

What was measured:
Type in all cases: in vivo
Cochliobolus sativus = experiment: Spot Blotch of Wheat (COCHSA), whole-plant fungicide test; conditions: Bipolaris sorokiniana, foliar, 24 h, 200 ppm on foliage, one-day protectant test, read-out: COCHSA percent control of disease
Protocol: The activity of the compounds as effective fungicides was determined by applying the compounds to plants and observing control of fungal disease. The compounds were formulated at 200 ppm in 10 vol. percent acetone plus 90 vol. percent Triton X water (deionized water 99.99 wt. percent+0.01 wt. percent Triton X100), giving a “formulated test compound.” In a few cases, compounds were formulated at 100, 75 or 8.3 ppm rather than 200 ppm in 10 vol. percent acetone plus 90 vol. percent Triton X water (deionized water 99.99 wt. percent+0.01 wt. percent Triton X100), giving a ‘formulated test compound’. The compounds were tested for ability to control plant diseases in a 1-day protectant test (1DP) or a 2-day curative test (2DC). Formulated test compounds were applied to plants using a turn table sprayer fitted with two opposing air atomization nozzles which delivered approximately 1500 L/ha of spray volume. Plants were inoculated with spores of the fungus the next day (1DP), then incubated in an environment conducive to disease development. In a few cases, the compounds were tested for ability to control plant disease in a two-day curative test. Plants were inoculated with spores of the fungus two days prior to compound application, and incubated in an environment conducive to disease development both before and after compound application (2DC). For all types of tests, disease severity was evaluated 4 to 28 days later, depending on the speed of disease development.
Each pot contained 3-8 seedlings. These plants were sprayed until wet with the formulated test compound. On the following day, the leaves were inoculated with an aqueous spore suspension of Cochliobolus sativus and the plants were kept in high humidity for one to two days to permit spores to germinate and infect the leaf. The plants were then transferred to a greenhouse until disease developed on untreated control plants.
The following table presents the activity of typical compounds of the present invention when evaluated in these experiments. The effectiveness of the test compounds in controlling disease was determined by assessing the severity of disease on treated plants, then converting the severity to percent control based on the level of disease on untreated, inoculated plants.
TABLE 4: Activity of compounds as fungicides. Data are the level at which the given disease was controlled when the given compound was applied to the foliage of the plant at 200 ppm. In a few cases (noted in the table) the compound was applied to the plant at 100, 75 or 8.3 ppm. The plant was inoculated with the fungus one day after treatment. In a few cases (noted in the table) the plant was inoculated with the fungus two days before treatment.

Colletotricum lagenarium = experiment: Cucumber Anthracnose (COLLLA), whole-plant fungicide test; conditions: one-day protectant test; for pest or weed control at 200 ppm: foliar
Leptosphaeria nodorum = experiment: Glume Blotch of Wheat (LEPTNO), whole-plant fungicide test; conditions: Parastagonospora nodorum, read-out: LEPTNO percent control of disease; for pest or weed control at 200 ppm: foliar, 24 h, 200 ppm on foliage, one-day protectant test
Phytophthora infestans = experiment: whole plant or invertebrate; conditions: for pest or weed control at 200 ppm: foliar, read-out: PHYTIN percent control of disease, 200 ppm on foliage, tomato, one-day protectant test
[1] = test system: Puccinia recondita tritici; experiment: Leaf Rust of Wheat (PUCCRT), whole-plant fungicide test; conditions: 200 ppm on foliage, one-day protectant test; for pest or weed control at 200 ppm: Puccinia recondita, foliar, 24 h, read-out: PUCCRT percent control of disease
Magnaporthe grisea = experiment: whole plant or invertebrate; conditions: for pest or weed control at 200 ppm: foliar, read-out: PYRIOR percent control of disease, 200 ppm on foliage, rice, one-day protectant test
Septoria tritici = experiment: Speckled Leaf Blotch of Wheat (SEPTTR), whole-plant fungicide test; conditions: Zymoseptoria tritici, read-out: SEPTTR percent control of disease; for pest or weed control at 200 ppm: foliar, 200 ppm on foliage; for pest or weed control at 100 ppm: 100 ppm (footnote a); for pest or weed control at 75 ppm: 75 ppm (footnote d)
Erysiphe cichoracaerum = experiment: Cucumber Powdery Mildew (ERYSCI), whole-plant fungicide test; conditions: 200 ppm on foliage, one-day protectant test; for pest or weed control at 200 ppm: Erysiphe, foliar, 24 h, read-out: ERYSCI percent control of disease
[2] = Cucumis sativus, 24 h, 200 ppm on foliage, read-out: COLLLA percent control of disease
[3] = Phytophthora infestans, in Solanum lycopersicum, 24 h
[4] = Pyricularia oryzae, in Oryza sativa, 24 h

Compound	pest or weed control at 200 ppm (Cochliobolus sativus) [%]	pest or weed control at 200 ppm (Colletotricum lagenarium; [2]) [%]	pest or weed control at 200 ppm (Leptosphaeria nodorum) [%]	pest or weed control at 200 ppm (Phytophthora infestans; [3]) [%]	pest or weed control at 200 ppm [1] [%]	pest or weed control at 200 ppm (Magnaporthe grisea; [4]) [%]	pest or weed control at 200 ppm (Erysiphe cichoracaerum) [%]	further results
COc1ncc(C(C)Nc2ncnc3scc(Cl)c23)cn1 (stereo not drawn) [Compound 55]	0 to 49	0 to 49	50 to 79	80 to 100	80 to 100	50 to 79		pest or weed control at 200 ppm (Septoria tritici; 24 h, one-day protectant test): 80 to 100%
FC(F)(F)COc1ccc(CCNc2ncnc3scc(Cl)c23)cn1 [Compound 5a]		50 to 79	80 to 100	80 to 100	80 to 100	80 to 100	80 to 100	pest or weed control at 100 ppm (Septoria tritici; 24 h, one-day protectant test): 80 to 100%
COc1ccc(C(C)Nc2ncnc3sc([N+](=O)[O-])cc23)cc1 (stereo not drawn) [Compound 47, [1-(4-Methoxyphenyl)ethyl]-(6-nitrothieno[2,3-d]pyrimidin-4-yl)amine]	0 to 49	0 to 49	50 to 79	0 to 49	80 to 100	80 to 100	0 to 49	
CCOc1csc2ncnc(NC(C)c3ccc(OC)nc3)c12 (stereo not drawn) [Compound 46]	0 to 49	0 to 49	50 to 79	0 to 49	80 to 100	80 to 100	50 to 79	
O=C(Oc1ccc(CCNc2ncnc3scc(Cl)c23)cc1)C1(F)C(F)(F)C(F)(F)C(F)(F)C(F)(F)C1(F)F [Compound 9a, 1,2,2,3,3,4,4,5,5,6,6-undecafluoroclohexanecarboxylic Acid 4-[2-(5-chlorothieno[2,3-d]pyrimidin-4-ylamino)ethyl]phenyl Ester]		0 to 49	0 to 49	0 to 49	80 to 100	80 to 100	0 to 49	pest or weed control at 75 ppm (Septoria tritici; 24 h, one-day protectant test): 80 to 100%
CC(Nc1ncnc2scc(Cl)c12)c1cnc(OCC(F)(F)F)nc1 (stereo not drawn) [Compound 54]	0 to 49	0 to 49	50 to 79	80 to 100	80 to 100	80 to 100		pest or weed control at 200 ppm (Septoria tritici; 24 h, one-day protectant test): 50 to 79%
CC(Nc1ncnc2scc(Cl)c12)c1ccc(F)nc1 (stereo not drawn) [Compound 40]	50 to 79		50 to 79		80 to 100			
CCOC(=O)c1csc2ncnc(NC(C)c3ccc(OC)cc3)c12 (stereo not drawn) [Compound 50, 5-Carboethoxy-N-[1-(4-methoxyphenyl)ethyl]thieno[2,3-d]pyrimidin-4-amine]	50 to 79	0 to 49	0 to 49	0 to 49	0 to 49	0 to 49		
CC(=O)COc1ccc(CCNc2ncnc3scc(Cl)c23)cc1 [Compound 6a]		50 to 79	50 to 79	80 to 100	80 to 100	80 to 100	0 to 49	pest or weed control at 75 ppm (Septoria tritici; 24 h, one-day protectant test): 0 to 49%
CC(C)(C)OC(=O)Nc1ccc(CCNc2ncnc3scc(Cl)c23)cc1 [Compound 10a, {4-[2-(5-chlorothieno[2,3-d]pyrimidin-4-ylamino)ethyl]phenyl}carbamic Acid t-butyl Ester]		0 to 49	0 to 49		0 to 49		0 to 49	pest or weed control at 8.3 ppm (Magnaporthe grisea; Pyricularia oryzae, in Oryza sativa, 24 h, read-out: PYRIOR percent control of disease, 8.3 ppm (footnote c), rice, one-day protectant test): 80 to 100%; pest or weed control at 75 ppm (Septoria tritici; 24 h, one-day protectant test): 80 to 100%
CCOc1csc2ncnc(N[C@@H](C)c3ccc(OC)cc3)c12 [Compound 43]	0 to 49	0 to 49	0 to 49	0 to 49	50 to 79	50 to 79		
OCC(Nc1ncnc2scc(Cl)c12)c1ccccc1 (stereo not drawn) [Compound 69]								COLLLA percent control of disease (Colletotricum lagenarium; 200 ppm on foliage): * (* is 0-49 percent control of disease); ERYSCI percent control of disease (Erysiphe cichoracaerum): * (* is 0-49 percent control of disease); pest or weed control at 100 ppm (Leptosphaeria nodorum; 48 h, 100 ppm (footnote a), two-day curative test (footnote b)): 50 to 79%; PHYTIN percent control of disease (Phytophthora infestans; 200 ppm on foliage, tomato, one-day protectant test): * (* is 0-49 percent control of disease); PUCCRT percent control of disease [1]: * (* is 0-49 percent control of disease); PYRIOR percent control of disease (Magnaporthe grisea; 200 ppm on foliage, rice, one-day protectant test): * (* is 0-49 percent control of disease); pest or weed control at 100 ppm (Septoria tritici; 48 h, two-day curative test (footnote b)): 50 to 79%
CCOC(=O)c1sc2ncnc(NC(C)c3ccc(OC)cc3)c2c1OC (stereo not drawn) [Compound 51, 5-Methoxy-4-[1-(4-methoxyphenyl)ethylamino]thieno[2,3-d]pyrimidine-6-carboxylic Acid Ethyl Ester]	0 to 49		0 to 49		0 to 49			pest or weed control at 200 ppm (Septoria tritici; 24 h, one-day protectant test): 0 to 49%
Clc1csc2ncnc(N3CCCC3c3cccnc3)c12 (stereo not drawn) [Compound 56]	0 to 49	0 to 49	0 to 49	0 to 49	50 to 79	0 to 49	0 to 49	
COc1ccc(C(C)Nc2ncnc3scc(C#N)c23)cc1 (stereo not drawn) [Compound 49, 5-Cyano-N-[1-(4-methoxyphenyl)ethyl]thieno[2,3-d]pyrimidin-4-amine]	50 to 79	0 to 49	0 to 49	0 to 49	80 to 100	80 to 100		
COc1ccc(C(C)Nc2ncnc3sc(Br)cc23)cc1 (stereo not drawn) [Compound 48, (6-Bromothieno[2,3-d]pyrimidin-4-yl)-[1-(4-methoxyphenyl)ethyl]amine]	80 to 100	0 to 49	0 to 49	0 to 49	0 to 49	0 to 49	0 to 49	
CC(Nc1ncnc2scc(Cl)c12)c1ccc(OCCF)nc1 (stereo not drawn) [Compound 75]		50 to 79	0 to 49	0 to 49	80 to 100	80 to 100	80 to 100	
CC(Nc1ncnc2scc(Cl)c12)c1ccc(C(C)(C)C)cc1 (stereo not drawn) [Compound 91]			80 to 100		80 to 100	80 to 100	80 to 100	pest or weed control at 100 ppm (Colletotricum lagenarium; Cucumis sativus, 24 h, 100 ppm (footnote a), read-out: COLLLA percent control of disease): 50 to 79%; pest or weed control at 100 ppm (Phytophthora infestans; Phytophthora infestans, in Solanum lycopersicum, 24 h, read-out: PHYTIN percent control of disease, 100 ppm (footnote a), tomato, one-day protectant test): 50 to 79%
COc1ccc(OCC(C)Nc2ncnc3scc(Cl)c23)cn1 (stereo not drawn) [Compound 53]	50 to 79	0 to 49	0 to 49	0 to 49	80 to 100	50 to 79		pest or weed control at 200 ppm (Septoria tritici; 24 h, one-day protectant test): 50 to 79%
